In series [1] the target is T1, Solute carrier organic anion transporter family member 1A1 (Rattus norvegicus, UniProt P46720).
T1 sequence (P46720 whole entry): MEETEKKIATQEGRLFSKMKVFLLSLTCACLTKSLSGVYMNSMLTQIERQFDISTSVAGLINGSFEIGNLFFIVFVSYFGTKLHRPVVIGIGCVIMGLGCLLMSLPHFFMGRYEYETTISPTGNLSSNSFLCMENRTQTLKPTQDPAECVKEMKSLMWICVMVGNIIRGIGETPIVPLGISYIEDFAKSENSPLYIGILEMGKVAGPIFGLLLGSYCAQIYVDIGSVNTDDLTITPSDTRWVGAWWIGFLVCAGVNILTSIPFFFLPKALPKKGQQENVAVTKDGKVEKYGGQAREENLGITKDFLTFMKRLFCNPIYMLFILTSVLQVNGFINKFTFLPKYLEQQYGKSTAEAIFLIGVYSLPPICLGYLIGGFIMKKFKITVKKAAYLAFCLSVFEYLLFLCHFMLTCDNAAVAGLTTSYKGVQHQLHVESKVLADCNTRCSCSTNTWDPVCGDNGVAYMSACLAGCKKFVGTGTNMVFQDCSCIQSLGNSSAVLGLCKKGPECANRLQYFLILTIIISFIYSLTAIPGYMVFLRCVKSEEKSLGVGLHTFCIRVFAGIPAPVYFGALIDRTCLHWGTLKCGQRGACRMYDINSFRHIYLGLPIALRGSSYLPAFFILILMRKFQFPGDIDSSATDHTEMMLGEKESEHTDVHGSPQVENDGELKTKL
In words: TP_TRANSPORTER: inhibition of Pravastatin uptake (Pravastatin: 0.5 uM, Simvastatin: 50 uM) in Oatp1-expressing 293c18 cells. Conditions: human, hek293-ebna. The format is functional, cell-based.

For series [2], the target named is T1, Solute carrier organic anion transporter family member 1A1. Nature of the series: TP_TRANSPORTER: inhibition of Taurocholate uptake (Taurocholate: 0.5 uM, Simvastatin: 50 uM) in Oatp1-expressing 293c18 cells. The series is classed as functional, cell-based. Conditions: human, hek293-ebna.
For series [3] the target is unchanged. Nature of the series: TP_TRANSPORTER: inhibition of Pravastatin uptake (Pravastatin: 0.5 uM, Lovastatin: 50 uM) in Oatp1-expressing 293c18 cells. The format is functional, cell-based. The note with it: human, hek293-ebna.
For series [4], the target named is T2, Solute carrier organic anion transporter family member 1B1 (Homo sapiens, UniProt Q9Y6L6).
T2 sequence (Q9Y6L6 whole entry): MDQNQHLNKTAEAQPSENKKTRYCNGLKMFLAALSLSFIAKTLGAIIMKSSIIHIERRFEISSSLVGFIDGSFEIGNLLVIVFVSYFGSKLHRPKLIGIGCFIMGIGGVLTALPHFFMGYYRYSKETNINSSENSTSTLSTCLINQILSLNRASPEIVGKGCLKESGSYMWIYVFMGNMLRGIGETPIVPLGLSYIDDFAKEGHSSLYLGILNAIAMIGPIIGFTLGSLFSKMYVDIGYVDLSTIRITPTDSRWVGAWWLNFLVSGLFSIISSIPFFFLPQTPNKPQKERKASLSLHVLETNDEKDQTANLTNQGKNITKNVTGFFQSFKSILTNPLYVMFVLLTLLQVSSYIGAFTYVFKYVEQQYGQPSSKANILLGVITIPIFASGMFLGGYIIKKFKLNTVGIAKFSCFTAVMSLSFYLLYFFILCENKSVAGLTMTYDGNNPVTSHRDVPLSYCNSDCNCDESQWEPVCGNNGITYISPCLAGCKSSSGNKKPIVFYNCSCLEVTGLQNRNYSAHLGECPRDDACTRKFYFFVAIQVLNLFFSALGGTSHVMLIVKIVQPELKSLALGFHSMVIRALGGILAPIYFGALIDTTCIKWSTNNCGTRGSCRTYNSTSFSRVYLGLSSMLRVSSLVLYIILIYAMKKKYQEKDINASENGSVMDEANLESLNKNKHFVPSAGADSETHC
Nature of the series: TP_TRANSPORTER: inhibition of Taurocholate uptake (Taurocholate: 0.5 uM, Lovastatin: 50 uM) in OATP-C-expressing 293c18 cells. Conditions: hek293-ebna. The format is functional, cell-based.

Series [5] has as its target T1, Solute carrier organic anion transporter family member 1A1. In words: TP_TRANSPORTER: inhibition of Taurocholate uptake (Taurocholate: 0.5 uM, Lovastatin: 50 uM) in Oatp1-expressing 293c18 cells. The series is classed as functional, cell-based. The note with it: human, hek293-ebna.
Series [6] addresses T2, Solute carrier organic anion transporter family member 1B1. In words: TP_TRANSPORTER: inhibition of Pravastatin uptake (Pravastatin: 0.5 uM, Lovastatin: 50 uM) in OATP-C-expressing 293c18 cells. Conditions: hek293-ebna. The format is functional, cell-based.
Series [7] shares this target. Nature of the series: (§1) TP_TRANSPORTER: uptake in OATP-C-expressing 293c18 cells. Conditions: hek293-ebna. The format is functional, cell-based.
Series [8] deals with T1, Solute carrier organic anion transporter family member 1A1. Nature of the series: TP_TRANSPORTER: inhibition of Pravastatin uptake (Pravastatin: 0.5 uM, BMS243887: 50 uM) in Oatp1-expressing 293c18 cells. The format is functional, cell-based. Conditions: human, hek293-ebna.
The target is the same in series [9]. Nature of the series: TP_TRANSPORTER: inhibition of Taurocholate uptake (Taurocholate: 0.5 uM, BMS243887: 50 uM) in Oatp1-expressing 293c18 cells. The series is classed as functional, cell-based. The note with it: human, hek293-ebna.
The target in series [10] is T2, Solute carrier organic anion transporter family member 1B1. Nature of the series: TP_TRANSPORTER: inhibition of Pravastatin uptake (Pravastatin: 0.5 uM, BMS243887: 50 uM) in OATP-C-expressing 293c18 cells. The format is functional, cell-based. The note with it: hek293-ebna.
Series [11] shares this target. Nature of the series: TP_TRANSPORTER: inhibition of Taurocholate uptake (Taurocholate: 0.5 uM, BMS243887: 50 uM) in OATP-C-expressing 293c18 cells. Conditions: hek293-ebna. The format is functional, cell-based.
The target in series [12] is T1, Solute carrier organic anion transporter family member 1A1. In words: TP_TRANSPORTER: inhibition of Pravastatin uptake (Pravastatin: 0.5 uM, BMS241423: 50 uM) in Oatp1-expressing 293c18 cells. The format is functional, cell-based. The note with it: human, hek293-ebna.
Series [13] shares this target. Nature of the series: TP_TRANSPORTER: inhibition of Taurocholate uptake (Taurocholate: 0.5 uM, BMS241423: 50 uM) in Oatp1-expressing 293c18 cells. The series is classed as functional, cell-based. Conditions: human, hek293-ebna.
The target of series [14] is T2, Solute carrier organic anion transporter family member 1B1. Nature of the series: TP_TRANSPORTER: inhibition of Pravastatin uptake (Pravastatin: 0.5 uM, BMS241423: 50 uM) in OATP-C-expressing 293c18 cells. The series is classed as functional, cell-based. Conditions: hek293-ebna.
Series [15] shares this target. Nature of the series: TP_TRANSPORTER: inhibition of Taurocholate uptake (Taurocholate: 0.5 uM, BMS241423: 50 uM) in OATP-C-expressing 293c18 cells. The series is classed as functional, cell-based. The note with it: hek293-ebna.
Series [16] deals with T1, Solute carrier organic anion transporter family member 1A1. Nature of the series: TP_TRANSPORTER: inhibition of Pravastatin uptake (Pravastatin: 0.5 uM, Atorvastatin: 50 uM) in Oatp1-expressing 293c18 cells. The format is functional, cell-based. Conditions: human, hek293-ebna.
Series [17] deals with T2, Solute carrier organic anion transporter family member 1B1. Nature of the series: TP_TRANSPORTER: inhibition of Pravastatin uptake (Pravastatin: 0.5 uM, Atorvastatin: 50 uM) in OATP-C-expressing 293c18 cells. The note with it: hek293-ebna. The series is classed as functional, cell-based.
The target is the same in series [18]. Nature of the series: TP_TRANSPORTER: inhibition of Taurocholate uptake (Taurocholate: 0.5 uM, Atorvastatin: 50 uM) in OATP-C-expressing 293c18 cells. The format is functional, cell-based. Conditions: hek293-ebna.
Series [19] deals with T1, Solute carrier organic anion transporter family member 1A1. In words: TP_TRANSPORTER: inhibition of Taurocholate uptake (Taurocholate: 0.5 uM, Atorvastatin: 50 uM) in Oatp1-expressing 293c18 cells. The format is functional, cell-based. The note with it: human, hek293-ebna.
The target is the same in series [20]. Nature of the series: TP_TRANSPORTER: inhibition of Pravastatin uptake (Pravastatin: 0.5 uM, DHEAS: 50 uM) in Oatp1-expressing 293c18 cells. The series is classed as functional, cell-based. The note with it: human, hek293-ebna.
Series [21] shares this target. Nature of the series: TP_TRANSPORTER: inhibition of Taurocholate uptake (Taurocholate: 0.5 uM, DHEAS: 50 uM) in Oatp1-expressing 293c18 cells. The series is classed as functional, cell-based. Conditions: human, hek293-ebna.
Substrate in series [22]: CC[C@H](C)C(=O)O[C@H]1C[C@H](O)C=C2C=C[C@H](C)[C@H](CC[C@@H](O)C[C@@H](O)CC(=O)O)[C@H]21
The series is described as §1. The series is classed as functional, cell-based, HEK293-EBNA.

Substrate in series [23]: CC[C@H](C)C(=O)O[C@H]1C[C@H](O)C=C2C=C[C@H](C)[C@H](CC[C@@H](O)C[C@@H](O)CC(=O)O)[C@H]21
Nature of the series: TP_TRANSPORTER: uptake in Oatp1-expressing 293c18 cells. The format is functional, cell-based, HEK293-EBNA.

In the case of `CCC(C)(C)C(=O)O[C@H]1C[C@@H](C)C=C2C=C[C@H](C)[C@H](CC[C@@H]3C[C@@H](O)CC(=O)O3)[C@H]21` [SIMVASTATIN], the Activity entry in series [1] and in [2] was “inhibitor [+]” each time.
On to `CC[C@H](C)C(=O)O[C@H]1C[C@@H](C)C=C2C=C[C@H](C)[C@H](CC[C@@H]3C[C@@H](O)CC(=O)O3)[C@H]21` [LOVASTATIN], for which the Activity result in series [3], in series [4], in series [5] and in series [6] was “inhibitor [+]” each time.
Turning to `N[C@@H](Cc1cc(I)c(Oc2cc(I)c(O)c(I)c2)c(I)c1)C(=O)O` [LEVOTHYROXINE], the Activity result in [7] was “substrate [+]”.
As for `CC(C)c1c(C(=O)Nc2ccccc2O)c(-c2ccccc2)c(-c2ccc(F)cc2)n1CC[C@@H](O)C[C@@H](O)CC(=O)O`, the Activity result in series [8], in [9], in [10] and in series [11] was “inhibitor [+]” each time.
For the molecule `CC(C)c1c(C(=O)Nc2ccc(O)cc2)c(-c2ccccc2)c(-c2ccc(F)cc2)n1CC[C@H](O)C[C@H](O)CC(=O)O` [BMS241423], the Activity entry in series [12], in [13], in series [14] and in series [15] was “inhibitor [+]” in each case.
On to `CC(C)c1c(C(=O)Nc2ccccc2)c(-c2ccccc2)c(-c2ccc(F)cc2)n1CC[C@@H](O)C[C@@H](O)CC(=O)O` [ATORVASTATIN], for which the Activity entry in series [16], in series [17], in series [18] and in series [19] was “inhibitor [+]” in each case.
For the molecule `C[C@]12CC[C@H](OS(=O)(=O)O)CC1=CC[C@@H]1[C@@H]2CC[C@]2(C)C(=O)CC[C@@H]12` [PRASTERONE SULFURIC ACID], the Activity result in series [20] is “inhibitor [+]”; in series [7] it was “substrate [+]”; in series [21] it was “inhibitor [+]”.

B1: Solute carrier organic anion transporter family member 1B1 (Homo sapiens) (protein)
chain: T2 sequence (Q9Y6L6 whole entry)
B1: the Km in [22] amounted to 33.7 µM.

B2: Solute carrier organic anion transporter family member 1A1 (Rattus norvegicus) (protein)
chain: T1 sequence (P46720 whole entry)
As for B2, in series [23], the Km came to 30 µM.

The Km is the substrate concentration at which the rate is half of its maximum.

(Values after ChEMBL document CHEMBL2073936, “A novel human hepatic organic anion transporting polypeptide (OATP2). Identification of a liver-specific human organic anion transporting polypeptide and identification of rat and human hydroxymethylglutaryl-CoA reductase inhibitor transporters” (J Biol Chem, 1999).)
